Results: the NIST ThermoML archive (doi:10.1016/j.jct.2010.11.011)
Numbers after ± are expanded uncertainties.

Legend:
[1] = Molar enthalpy of transition or fusion; settings: DSC
[2] = for mass density: 293 K, 101.33 kPa, Flotation in CCl4 and Heptane; for Triple point temperature: DTA

For CCCCCCCCCC(=O)[O-].[Li+] [lithium decanoate], which “Molar enthalpy of transition or fusion” value ([1]; Crystal 1) is on record?
Its value is 5.92 ± 1.43 kcal/mol.

What about the mass density ([2]; Crystal 2) of the same compound?
The mass density was 1080 ± 40 kg/m3.

What about the Triple point temperature ([2]; Crystal 1) of the same compound?
The Triple point temperature was 516.6 ± 1.3 K.

Which “Molar enthalpy of transition or fusion” value ([1]; Crystal 1) does the source give for CCCCCCCCCCCC(=O)[O-].[Li+] [lithium dodecanoate] here?
Its value is 6.26 ± 1.36 kcal/mol.

And the mass density ([2]; Crystal 2)?
The mass density was 1060 ± 40 kg/m3.

What about the Triple point temperature ([2]; Crystal 1) of the same compound?
The Triple point temperature was 501.95 ± 1.8 K.

With CCCCCCCCCCCCCCCCC(=O)[O-].[Li+] [lithium heptadecanoate] as the compound, how does the “Molar enthalpy of transition or fusion” value ([1]; Crystal 1) read?
Its value is 3.2 ± 0.502 kcal/mol.

What about the mass density ([2]; Crystal 2) of the same compound?
Its mass density is 1090 ± 40 kg/m3.

What about the Triple point temperature ([2]; Crystal 1) of the same compound?
The Triple point temperature was 498.85 ± 0.59 K.

Which “Molar enthalpy of transition or fusion” value ([1]; Crystal 1) does the source give for CCCCCCCCCCCCCCCC(=O)[O-].[Li+] [lithium hexadecanoate] here?
Its value is 3.77 ± 1.2 kcal/mol.

And the mass density ([2]; Crystal 2)?
Its mass density is 1050 ± 40 kg/m3.

And the Triple point temperature ([2]; Crystal 1)?
Its Triple point temperature is 500.89 ± 2.8 K.

What does the source list for CCCCCCCCCCCCCCCCCCC(=O)[O-].[Li+] [lithium nonadecanoate]?
Molar enthalpy of transition or fusion ([1]; Crystal 1): 3.69 ± 1.17 kcal/mol; mass density ([2]; Crystal 2): 1080 ± 40 kg/m3; Triple point temperature ([2]; Crystal 1): 496.35 ± 1.2 K

For CCCCCCCCC(=O)[O-].[Li+] [lithium nonanoate], which “Molar enthalpy of transition or fusion” value ([1]; Crystal 1) is on record?
Its value is 5.4 ± 0.406 kcal/mol.

What about the mass density ([2]; Crystal 2) of the same compound?
Its mass density is 1120 ± 50 kg/m3.

What about the Triple point temperature ([2]; Crystal 1) of the same compound?
The Triple point temperature was 524.1 ± 1.2 K.

For CCCCCCCCCCCCCCCCCC(=O)[O-].[Li+] [lithium octadecanoate], which “Molar enthalpy of transition or fusion” value ([1]; Crystal 1) is on record?
Its value is 4.05 ± 0.311 kcal/mol.

What about the mass density ([2]; Crystal 2) of the same compound?
Its mass density is 1040 ± 40 kg/m3.

What about the Triple point temperature ([2]; Crystal 1) of the same compound?
Its Triple point temperature is 499.85 ± 0.59 K.

What does the source list for CCCCCCCC(=O)[O-].[Li+] [lithium octanoate]?
Molar enthalpy of transition or fusion ([1]; Crystal): 5.6 ± 0.227 kcal/mol; mass density ([2]; Crystal): 1080 ± 40 kg/m3; Triple point temperature ([2]; Crystal): 536.8 ± 0.7 K

Which “Molar enthalpy of transition or fusion” value ([1]; Crystal 1) does the source give for CCCCCCCCCCCCCCC(=O)[O-].[Li+] [lithium pentadecanoate] here?
The value was 3.86 ± 0.263 kcal/mol.

What about the mass density ([2]; Crystal 2) of the same compound?
Its mass density is 1100 ± 40 kg/m3.

And the Triple point temperature ([2]; Crystal 1)?
Its Triple point temperature is 501.25 ± 0.39 K.

For CCCCCCCCCCCCCC(=O)[O-].[Li+] [lithium tetradecanoate], which “Molar enthalpy of transition or fusion” value ([1]; Crystal 1) is on record?
Its value is 6.06 ± 8.6 kcal/mol.

And the mass density ([2]; Crystal 2)?
Its mass density is 1050 ± 40 kg/m3.

What about the Triple point temperature ([2]; Crystal 1) of the same compound?
Its Triple point temperature is 502.4 ± 1 K.

What does the source list for CCCCCCCCCCCCC(=O)[O-].[Li+] [lithium tridecanoate]?
Molar enthalpy of transition or fusion ([1]; Crystal 1): 3.32 ± 0.55 kcal/mol; mass density ([2]; Crystal 2): 1100 ± 40 kg/m3; Triple point temperature ([2]; Crystal 1): 504.27 ± 0.4 K

Which “Molar enthalpy of transition or fusion” value ([1]; Crystal) does the source give for CCCCCCCCCCC(=O)[O-].[Li+] [lithium undecanoate] here?
Its value is 5.85 ± 0.203 kcal/mol.

And the mass density ([2]; Crystal 2)?
The mass density was 1120 ± 50 kg/m3.

And the Triple point temperature ([2]; Crystal)?
Its Triple point temperature is 507.27 ± 3.1 K.
